Some results are limits rather than exact numbers.

GCN2, sequence (Q9P2K8 whole entry): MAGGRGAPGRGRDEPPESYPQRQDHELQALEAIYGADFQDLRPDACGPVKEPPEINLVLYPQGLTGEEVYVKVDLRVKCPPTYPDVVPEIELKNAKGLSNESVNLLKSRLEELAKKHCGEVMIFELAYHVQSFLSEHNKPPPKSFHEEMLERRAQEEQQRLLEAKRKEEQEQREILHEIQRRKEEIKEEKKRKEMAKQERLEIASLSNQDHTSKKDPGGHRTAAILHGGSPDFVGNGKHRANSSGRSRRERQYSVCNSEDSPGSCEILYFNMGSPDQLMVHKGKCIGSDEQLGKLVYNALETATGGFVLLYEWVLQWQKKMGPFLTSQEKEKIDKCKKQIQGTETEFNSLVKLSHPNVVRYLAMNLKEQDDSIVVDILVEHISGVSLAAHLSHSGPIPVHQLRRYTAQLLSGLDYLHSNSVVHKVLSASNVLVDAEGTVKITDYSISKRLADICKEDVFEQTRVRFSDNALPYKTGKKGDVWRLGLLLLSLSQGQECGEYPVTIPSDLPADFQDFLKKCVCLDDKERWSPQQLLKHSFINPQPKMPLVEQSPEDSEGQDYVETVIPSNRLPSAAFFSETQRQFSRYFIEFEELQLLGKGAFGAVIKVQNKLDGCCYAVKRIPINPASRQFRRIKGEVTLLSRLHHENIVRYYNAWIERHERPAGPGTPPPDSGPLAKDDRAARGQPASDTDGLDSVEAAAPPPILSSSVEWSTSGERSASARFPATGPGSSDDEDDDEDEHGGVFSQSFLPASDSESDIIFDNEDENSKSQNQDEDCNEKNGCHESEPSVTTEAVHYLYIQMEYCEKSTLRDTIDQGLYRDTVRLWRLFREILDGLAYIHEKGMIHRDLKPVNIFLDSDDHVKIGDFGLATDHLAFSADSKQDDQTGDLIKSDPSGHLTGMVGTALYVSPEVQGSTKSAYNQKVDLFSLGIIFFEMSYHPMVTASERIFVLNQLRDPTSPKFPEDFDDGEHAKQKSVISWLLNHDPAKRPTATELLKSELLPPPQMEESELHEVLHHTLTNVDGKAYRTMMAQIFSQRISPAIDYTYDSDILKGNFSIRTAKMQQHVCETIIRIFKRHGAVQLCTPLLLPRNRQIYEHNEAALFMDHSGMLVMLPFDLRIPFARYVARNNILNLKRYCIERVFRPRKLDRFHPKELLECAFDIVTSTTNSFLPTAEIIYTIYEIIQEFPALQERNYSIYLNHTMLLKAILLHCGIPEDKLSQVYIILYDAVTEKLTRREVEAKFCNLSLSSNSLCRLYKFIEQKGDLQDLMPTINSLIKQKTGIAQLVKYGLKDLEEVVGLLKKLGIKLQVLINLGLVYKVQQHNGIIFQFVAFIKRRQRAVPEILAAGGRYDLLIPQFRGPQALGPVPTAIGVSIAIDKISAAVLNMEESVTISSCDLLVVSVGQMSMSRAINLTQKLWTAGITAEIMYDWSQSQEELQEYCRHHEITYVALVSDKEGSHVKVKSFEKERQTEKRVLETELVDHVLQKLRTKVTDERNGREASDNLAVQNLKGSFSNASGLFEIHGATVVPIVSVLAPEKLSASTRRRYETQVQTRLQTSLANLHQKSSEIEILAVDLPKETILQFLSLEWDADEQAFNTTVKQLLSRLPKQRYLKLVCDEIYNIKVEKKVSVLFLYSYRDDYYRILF

The target of one assay is GCN2 (Homo sapiens, UniProt Q9P2K8). In words: GCN2 enzymatic endpoint assay: phosphorylation of GFP-eIF2α measured by TR-FRET (Lanthascreen). Type of assay: biochemical. The following applies: GCN2 biochemical IC50; 4 nM GCN2, 2 μM ATP, 80 nM GFP-eIF2α, 90 min RT; read-out: GCN2 activity. Summed up:
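2 μM ATP, 80 nM GFP-eIF2α, RT, 90 min; EDTA stop. Tb-anti-phospho antibody TR-FRET read, 520/495 nm ratio.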
(In general: TR-FRET usually uses a lanthanide donor and a delayed reading to cut background.)
Consider `CNC(=O)[C@]1(C)CC[C@@H](Nc2ncc3c(Br)nn(-c4ccc(-c5nnc(C(C)(C)N)o5)cc4)c3n2)C1` [Example 47, (1R,3R)-3-((1-(4-(5-(2-aminopropan-2-yl)-1,3,4-oxadiazol-2-yl)phenyl)-3-bromo-1H-pyrazolo[3,4-d]pyrimidin-6-yl)amino)-N,1-dimethylcyclopentane-1-carboxamide; 2,2,2-trifluoroacetic acid], for which the IC50 was in the range of 25 to 200 nM.

Still in this assay, the particulars now being: tested as described in Example 77; compound and/or hydrochloride, dihydrochloride or trifluoroacetic acid salt; read-out: IC 50 Activity.
In the case of `CC1(CNC(=O)[C@@H]2CC[C@@H](Nc3ncc4c(Br)nn(-c5cc(F)c6ncccc6c5)c4n3)C2)COC1` [(1R,3R)-3-((3-bromo-1-(8-fluoroquinolin-6-yl)-1H-pyrazolo[3,4-d]pyrimidin-6-yl)amino)-N-((3-methyloxetan-3-yl)methyl)cyclopentane-1-carboxamide], the IC50 is 25 to 200 nM. `N#Cc1cc(-n2nc(Br)c3cnc(N[C@@H]4CC[C@@H](C(=O)NC5CCN(CC(F)(F)F)C5)C4)nc32)cc2cccnc12` (mixture of isomers): the IC50 is 25 to 200 nM. With `CNC(=O)[C@]1(C)CC[C@@H](Nc2ncc3c(Br)nn(-c4ccc5c(c4)[C@H](NS(C)(=O)=O)CC5)c3n2)C1` [(1R,3R)-3-[[3-bromo-1-[(3R)-3-(methanesulfonamido)indan-5-yl]pyrazolo [3,4-d]pyrimidin-6-yl]amino]-N,1-dimethyl-cyclopentanecarboxamide], the IC50 fell in the range of 25 to 200 nM. On the same count and under the same terms, with `CNC(=O)C1(C)CC[C@@H](Nc2ncc3c(Br)nn(-c4ccc5nc(C)cc(Cl)c5c4)c3n2)C1` (stereo partly drawn) [(3R)-3-[[3-bromo-1-(4-chloro-2-methyl-6-quinolyl)pyrazolo[3,4-d]pyrimidin-6-yl]amino]-N,1-dimethyl-cyclopentane-carboxamide] the figure was 25 to 200 nM; with `CNC(=O)C1(CC(F)(F)F)CC[C@@H](Nc2ncc3c(Br)nn(-c4ccc(-c5nnc(C)s5)c(CCC#N)c4)c3n2)C1` (stereo partly drawn), 25 to 200 nM. In the case of `O=C1CN(C(=O)[C@@H]2CC[C@@H](Nc3ncc4c(Br)nn(-c5cc(F)c6ncccc6c5)c4n3)C2)CN1`, the IC50 lay in the range of 25 to 200 nM.

As to `Cc1nnc(-c2ccc(-n3nc(Br)c4cnc(N[C@@H]5CCC(C)(C(=O)N6C[C@@H](C)O[C@H](C)C6)C5)nc43)cc2)o1` (stereo partly drawn) [[(3R)-3-[[3-bromo-1-[4-(5-methyl-1,3,4-oxadiazol-2-yl)phenyl]pyrazolo[3,4-d]pyrimidin-6-yl]amino]-1-methyl-cyclopentyl]-[(2R,6R)-2,6-dimethylmorpholin-4-yl]methanone], the IC50 was 25 to 200 nM. On to `C[C@@]1(C(=O)NCC2(O)CC2)CC[C@@H](Nc2ncc3c(Br)nn(-c4cc(F)c5ncccc5c4)c3n2)C1` [(1R,3R)-3-[[3-bromo-1-(8-fluoro-6-quinolyl)pyrazolo[3,4-d]pyrimidin-6-yl]amino]-N-[(1-hydroxycyclopropyl)methyl]-1-methyl-cyclopentanecarboxamide], for which the IC50 is less than 25 nM. As to `CNC(=O)[C@]1(C)CC[C@@H](Nc2ncc3c(Br)nn(-c4ccc(-c5ncco5)c([C@H](C)C#N)c4)c3n2)C1` [(1R,3R)-3-[[3-bromo-1-[3-[(1S)-1-cyanoethyl]-4-oxazol-2-yl-phenyl]pyrazolo[3,4-d]pyrimidin-6-yl]amino]-N,1-dimethyl-cyclopentane-carboxamide], the IC50 fell in the range of 25 to 200 nM.

Regarding `COC(=O)N1CC[C@@H](Nc2ncc3c(Br)nn(-c4ccc(-c5nnc(C)s5)cc4)c3n2)C1`, the IC50 fell in the range of 25 to 200 nM.

Regarding `CNC(=O)[C@]1(C)CC[C@@H](Nc2ncc3c(Br)nn(-c4cc(Cl)cc(CNS(C)(=O)=O)c4)c3n2)C1` [(1R,3R)-3-[[3-bromo-1-[3-chloro-5-(methanesulfonamidomethyl)phenyl]pyrazolo[3,4-d]pyrimidin-6-yl]amino]-N,1-dimethyl-cyclopentanecarboxamide], the IC50 lay in the range of 25 to 200 nM.

Turning to `CNC(=O)[C@@H]1CC[C@@H](Nc2ncc3c(Br)nn(-c4cc(Cl)cc(CO)c4)c3n2)C1` [(1R,3R)-3-[[3-bromo-1-[3-chloro-5-(hydroxy-methyl)phenyl]pyrazolo[3,4-d]pyrimidin-6-yl]amino]-N-methyl-cyclopentanecarboxamide], the IC50 lay in the range of 25 to 200 nM. Still for that read-out and setting: with `CN=S(C)(=O)CCNC(=O)[C@@H]1CC[C@@H](Nc2ncc3c(Br)nn(-c4cc(F)c5ncccc5c4)c3n2)C1` (stereo partly drawn) [(1R,3R)-3-((3-bromo-1-(8-fluoroquinolin-6-yl)-1H-pyrazolo[3,4-d]pyrimidin-6-yl)amino)-N-(2-(N,S-dimethylsulfonimidoyl)ethyl)cyclopentane-1-carboxamide] the figure was less than 25 nM.

Consider `COCCN1CN(C(=O)C2(C)CC[C@@H](Nc3ncc4c(Br)nn(-c5cc(F)c6ncccc6c5)c4n3)C2)CC1=O` (stereo partly drawn) [1-[(3R)-3-[[3-bromo-1-(8-fluoro-6-quinolyl)pyrazolo[3,4-d]pyrimidin-6-yl]amino]-1-methyl-cyclopentanecarbonyl]-3-(2-methoxyethyl)imidazolidin-4-one], for which the IC50 is less than 25 nM. As for `CNC(=O)[C@]1(COC)CC[C@@H](Nc2ncc3c(Br)nn(-c4cc(F)c5ncccc5c4)c3n2)C1` [(1R,3R)-3-[[3-bromo-1-(8-fluoro-6-quinolyl)pyrazolo[3,4-d]pyrimidin-6-yl]amino]-1-(methoxymethyl)-N-methyl-cyclopentane-carboxamide], the IC50 was less than 25 nM. `CNC(=O)[C@]1(C)CC[C@@H](Nc2ncc3c(Br)nn(-c4ccc(C#N)c(OCC(C)O)c4)c3n2)C1` (stereo partly drawn) [(1R,3R)-3-[[3-bromo-1-[4-cyano-3-(2-hydroxypropoxy)phenyl]pyrazolo [3,4-d]pyrimidin-6-yl]amino]-N,1-dimethyl-cyclopentanecarboxamide]: the IC50 is 25 to 200 nM. As for `CNC(=O)[C@]1(C)CC[C@@H](Nc2ncc3c(Br)nn(-c4ccc(-c5ncco5)c(C(C)(C)C#N)c4)c3n2)C1` [(1R,3R)-3-[[3-bromo-1-[3-(1-cyano-1-methyl-ethyl)-4-oxazol-2-yl-phenyl]pyrazolo[3,4-d]pyrimidin-6-yl]amino]-N,1-dimethyl-cyclopentanecarboxamide], the IC50 lay in the range of 25 to 200 nM. On the same count and under the same terms, with `CNC(=O)[C@]1(C)CC[C@@H](Nc2ncc3c(Br)nn(-c4cc(CCN)c5nccnc5c4)c3n2)C1` [(1R,3R)-3-[[1-[8-(2-aminoethyl)quinoxalin-6-yl]-3-bromo-pyrazolo[3,4-d]pyrimidin-6-yl]amino]-N,1-dimethyl-cyclopentane-carboxamide] the figure was 25 to 200 nM; with `CC1(C(=O)N2CCC(F)(C#N)C2)CC[C@@H](Nc2ncc3c(Br)nn(-c4cc(F)c5ncccc5c4)c3n2)C1` (stereo partly drawn) [1-[(3R)-3-[[3-bromo-1-(8-fluoro-6-quinolyl)pyrazolo[3,4-d]pyrimidin-6-yl]amino]-1-methyl-cyclopentanecarbonyl]-3-fluoro-pyrrolidine-3-carbonitrile], 25 to 200 nM.

For the molecule `CNC(=O)C1(C)CC[C@@H](Nc2ncc3c(Br)nn(-c4ccc(-c5nc(C)no5)cc4)c3n2)C1` (stereo partly drawn) [(3R)-3-[[3-bromo-1-[4-(3-methyl-1,2,4-oxadiazol-5-yl)phenyl]pyrazolo[3,4-d]pyrimidin-6-yl]amino]-N,1-dimethyl-cyclopentanecarboxamide], the IC50 was 25 to 200 nM. Still for that read-out and setting: with `CNC(=O)[C@]1(C)CC[C@@H](Nc2ncc3c(Br)nn(-c4ccc5nc(N)nc(N)c5c4)c3n2)C1` [(1R,3R)-3-[[3-bromo-1-(2,4-diamino-quinazolin-6-yl)pyrazolo[3,4-d]pyrimidin-6-yl]amino]-N,1-dimethyl-cyclopentane-carboxamide; 2,2,2-trifluoroacetic acid] the figure was 25 to 200 nM; with `Cc1nnc(-c2ccc(-n3nc(Br)c4cnc(N[C@@H]5CC[C@@](C)(C(=O)N6CCNC(=O)C6)C5)nc43)cc2)o1` [4-[(1R,3R)-3-[[3-bromo-1-[4-(5-methyl-1,3,4-oxadiazol-2-yl)phenyl]pyrazolo [3,4-d]pyrimidin-6-yl]amino]-1-methyl-cyclopentanecarbonyl]piperazin-2-one], 25 to 200 nM; with `CNC(=O)[C@]1(C)CC[C@@H](Nc2ncc3c(Br)nn(-c4ccc(C#N)c(CNS(C)(=O)=O)c4)c3n2)C1` [(1R,3R)-3-[[3-bromo-1-[4-cyano-3-(methanesulfonamidomethyl)phenyl]pyrazolo[3,4-d]pyrimidin-6-yl]amino]-N,1-dimethyl-cyclopentanecarboxamide], 25 to 200 nM. Consider `CNC(=O)[C@]1(C)CC[C@@H](Nc2ncc3c(Br)nn(-c4cc(F)c5nc(C)ccc5c4)c3n2)C1` [(1R,3R)-3-[[3-bromo-1-(8-fluoro-2-methyl-6-quinolyl)pyrazolo[3,4-d]pyrimidin-6-yl]amino]-N,1-dimethyl-cyclopentane-carboxamide], for which the IC50 is less than 25 nM. As to `CNC(=O)[C@]1(C)CC[C@@H](Nc2ncc3c(Br)nn(-c4cc(CNCCOC)c5ncccc5c4)c3n2)C1` [(1R,3R)-3-[[3-bromo-1-[8-[(2-methoxy-ethylamino)methyl]-6-quinolyl]pyrazolo [3,4-d]pyrimidin-6-yl]amino]-N,1-dimethyl-cyclopentanecarboxamide], the IC50 is 25 to 200 nM. Consider `Cc1nnc(-c2ccc(-n3nc(Br)c4cnc(N[C@@H]5CC[C@@]6(CCNC6=O)C5)nc43)cc2)s1`, for which the IC50 was 25 to 200 nM. Same read-out and setting: with `CNC(=O)CC1CC(Nc2ncc3c(Br)nn(-c4ccc(-c5nnc(C)s5)c(CCC#N)c4)c3n2)C1` (stereo not drawn) the figure was 25 to 200 nM; with `COC(C)(C)CN(C)C(=O)[C@]1(C)CC[C@@H](Nc2ncc3c(Br)nn(-c4cc(F)c5ncccc5c4)c3n2)C1` [(1R,3R)-3-[[3-bromo-1-(8-fluoro-6-quinolyl)pyrazolo[3,4-d]pyrimidin-6-yl]amino]-N-(2-methoxy-2-methyl-propyl)-N,1-dimethyl-cyclopentanecarboxamide], less than 25 nM; with `Cc1nnc(-c2ccc(-n3nc(Br)c4cnc(NC5CC(O)C5)nc43)cc2)s1` (stereo not drawn) [3-[[3-bromo-1-[4-(5-methyl-1,3,4-thiadiazol-2-yl)phenyl]pyrazolo[3,4-d]pyrimidin-6-yl]amino]cyclobutanol], 25 to 200 nM.

The record behind these values is patent publication US11046699B2, “Pyrazolo-pyrimidin-amino-cycloalkyl compounds and their therapeutic uses” (RAPT THERAPEUTICS, INC., priority 2018, dated 2021).
